target: PIK3CG (human) (UniProt P48736); assay: Inhibition of PIK3CG Kinase Activity
Sequence (P48736 whole entry, looked up): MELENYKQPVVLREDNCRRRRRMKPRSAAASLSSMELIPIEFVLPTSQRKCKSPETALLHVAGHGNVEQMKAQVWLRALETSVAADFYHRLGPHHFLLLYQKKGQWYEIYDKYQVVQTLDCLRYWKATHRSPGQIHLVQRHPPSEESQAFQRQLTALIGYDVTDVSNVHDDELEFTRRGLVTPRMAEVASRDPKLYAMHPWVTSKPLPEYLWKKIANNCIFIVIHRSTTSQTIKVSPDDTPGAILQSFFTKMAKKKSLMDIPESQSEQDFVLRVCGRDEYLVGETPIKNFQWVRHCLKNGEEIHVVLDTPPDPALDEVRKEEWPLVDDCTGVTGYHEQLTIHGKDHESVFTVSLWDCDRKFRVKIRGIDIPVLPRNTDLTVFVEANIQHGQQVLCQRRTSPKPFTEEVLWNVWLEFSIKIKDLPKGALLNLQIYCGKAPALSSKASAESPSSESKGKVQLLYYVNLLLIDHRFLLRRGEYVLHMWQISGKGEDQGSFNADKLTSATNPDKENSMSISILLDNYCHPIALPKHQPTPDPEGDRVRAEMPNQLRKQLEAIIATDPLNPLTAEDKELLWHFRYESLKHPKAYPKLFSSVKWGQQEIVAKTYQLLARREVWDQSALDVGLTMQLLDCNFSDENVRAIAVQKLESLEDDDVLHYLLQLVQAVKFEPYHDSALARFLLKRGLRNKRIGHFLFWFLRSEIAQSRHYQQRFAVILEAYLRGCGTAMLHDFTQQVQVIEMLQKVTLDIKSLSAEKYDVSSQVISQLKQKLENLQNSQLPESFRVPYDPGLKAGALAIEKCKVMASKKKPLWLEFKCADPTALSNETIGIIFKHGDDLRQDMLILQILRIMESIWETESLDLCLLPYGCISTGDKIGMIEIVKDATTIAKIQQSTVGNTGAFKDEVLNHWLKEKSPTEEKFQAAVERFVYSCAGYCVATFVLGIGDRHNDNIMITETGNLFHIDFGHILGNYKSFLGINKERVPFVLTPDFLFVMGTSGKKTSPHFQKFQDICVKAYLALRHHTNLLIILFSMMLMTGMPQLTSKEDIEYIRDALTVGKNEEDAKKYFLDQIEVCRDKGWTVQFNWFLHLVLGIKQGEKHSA

`COc1cc(-c2ccc3c(n2)CN(c2ccn(C[C@H](C)O)n2)C3=O)cnc1OC` and `COc1cc(-c2ccc3c(n2)CN(c2ccn(C)n2)C3=O)cnc1OC` cannot be ordered by Ki: less than 0.1 µM for the first, less than 0.1 µM for the second.

First: COc1cc(-c2ccc3c(n2)[C@H](C)N(c2ccn(CC(C)(C)O)n2)C3=O)cnc1OC
Second: COCCO[C@H]1c2nc(-c3cnc(OC)c(OC)c3)ccc2C(=O)N1c1cnn(CC(F)(F)F)c1
The Ki of the first is lower: less than 0.1 µM for the first, 0.1 to 0.49 µM for the second.

Compared with `COc1cc(-c2ccc3c(c2)CN(c2cn[nH]c2)C3=O)cnc1OC`, `COc1cc(-c2ccc3c(c2)CN(c2cnn(CCO)c2)C3=O)cnc1OC` is higher in Ki: less than 0.1 µM for the first, 0.1 to 0.49 µM for the second. The first binds more tightly here.

`COc1cc(-c2ccc3c(n2)CN(c2cccc(CC#N)c2)C3=O)cnc1OC` and `COc1cc(-c2ccc3c(n2)CN(c2cncc(CO)c2)C3=O)cnc1OC` cannot be ordered by Ki: less than 0.1 µM for the first, less than 0.1 µM for the second.

`COCCC1c2nc(-c3cnc(OC)c(OC)c3)cc(C)c2C(=O)N1c1cnn(CC(F)(F)F)c1` (configuration not stated) and `CCOc1ncc(-c2cc(C)c3c(n2)C(CC)N(c2cnn(CC(F)(F)F)c2)C3=O)cc1OC` (configuration not stated) cannot be ordered by Ki: less than 0.1 µM for the first, less than 0.1 µM for the second.

`CCOc1cc(-c2cc(C)c3c(n2)CN(c2cnn(CC#N)c2)C3=O)cnc1OC` and `COCn1cc(N2Cc3nc(-c4cnc(OC)c(OC)c4)cc(C)c3C2=O)cn1` cannot be ordered by Ki: less than 0.1 µM for the first, less than 0.1 µM for the second.

`COc1ncc(-c2cc(C)c3c(n2)C(C)(C)N(c2cnn(CC(F)(F)F)c2)C3=O)cc1C(=O)NCC#N` and `COCCNC(=O)c1cc(-c2cc(C)c3c(n2)C(C)(C)N(c2cnn(CC(F)(F)F)c2)C3=O)cnc1OC` cannot be ordered by Ki: less than 0.1 µM for the first, less than 0.1 µM for the second.

`CCOc1cc(-c2cc(C)c3c(c2)C(C)N(c2cnn(CC(F)(F)F)c2)C3=O)cnc1OCC` (configuration not stated) and `CCOc1cc(-c2cc(C)c3c(c2)CN(c2cnn(CC(F)(F)F)c2)C3=O)cnc1OCC` cannot be ordered by Ki: less than 0.1 µM for the first, less than 0.1 µM for the second.

`COc1cc(-c2cc(C)c3c(n2)C(C)(C)N(c2cnn(CC(F)(F)F)c2)C3=O)cnc1OC` and `CCc1cc(-c2cnc(OC)c(OC)c2)nc2c1C(=O)N(c1cnn(CC(F)(F)F)c1)C2(C)C` cannot be ordered by Ki: less than 0.1 µM for the first, less than 0.1 µM for the second.

`COc1cc(-c2cc(C)c3c(n2)CN(c2cn(C)cn2)C3=O)cnc1OC` and `COc1cc(-c2cc(C)c3c(n2)CN(c2ccsc2)C3=O)cnc1OC` cannot be ordered by Ki: less than 0.1 µM for the first, less than 0.1 µM for the second.

`CCn1ccc(N2Cc3nc(-c4cnc(OC)c(OCC(F)(F)F)c4)cc(C)c3C2=O)n1` and `CCn1ccc(N2Cc3nc(-c4cnc(OC)c(OCC5CC5)c4)cc(C)c3C2=O)n1` cannot be ordered by Ki: less than 0.1 µM for the first, less than 0.1 µM for the second.

`C=C(F)Cn1cc(N2C(=O)c3c(C)cc(-c4cncc(OC)c4)nc3C2(C)C)cn1` and `COc1cc(-c2cc(C)c3c(n2)C(C)(C)N(c2cnn(CC(F)(F)F)c2)C3=O)cnc1C` cannot be ordered by Ki: less than 0.1 µM for the first, less than 0.1 µM for the second.

`COc1cc(-c2cc(C)c3c(n2)C(C)(C)N(c2cnn(C[C@H](C)O)c2)C3=O)cnc1OC` and `Cc1cc(-c2cnc(C)c(C(=O)NC(C)C)c2)nc2c1C(=O)N(c1cnn(CC(F)(F)F)c1)C2(C)C` cannot be ordered by Ki: less than 0.1 µM for the first, less than 0.1 µM for the second.

`Cc1cc(-c2cncc(OCC(F)F)c2)nc2c1C(=O)N(c1cnn(CC(F)(F)F)c1)C21CCOCC1` and `COC1c2nc(-c3cncc(OCC(F)F)c3)cc(C)c2C(=O)N1c1cnn(CC(F)(F)F)c1` (configuration not stated) cannot be ordered by Ki: less than 0.1 µM for the first, less than 0.1 µM for the second.

`COc1cc(-c2ccc3c(n2)CN(c2ccc(N(C)CC4CCCO4)nc2)C3=O)cnc1OC` (configuration not stated) and `CCN(C)C(=O)COc1ccc(N2Cc3nc(-c4cnc(OC)c(OC)c4)ccc3C2=O)cn1` fall in the same range of Ki: 0.1 to 0.49 µM for the first, 0.1 to 0.49 µM for the second.

Compared with `CCOc1cc(-c2ccc3c(c2)CN(c2cnn(CC)c2)C3=O)cnc1OC`, `CCc1cc(-c2cnc(OC)c(OC)c2)nc2c1C(=O)N(c1cnn(CC(F)(F)F)c1)C2` is lower in Ki: 0.1 to 0.49 µM for the first, less than 0.1 µM for the second. The second binds more tightly here.

First: Cc1cc(-c2cncc(C(=O)NC3COC3)c2)nc2c1C(=O)N(c1cnn(CC(F)(F)F)c1)C2(C)C
Second: Cc1cc(-c2cncc(C(=O)N3CCC[C@@H]3C)c2)nc2c1C(=O)N(c1cnn(CC(F)(F)F)c1)C2(C)C
The Ki of the first is lower: less than 0.1 µM for the first, 0.1 to 0.49 µM for the second.

First: Cc1cc(-c2cnc(F)c(O)c2)nc2c1C(=O)N(c1cnn(CC(F)(F)F)c1)C2(C)C
Second: Cc1cc(-c2cncc(N)c2)nc2c1C(=O)N(c1cnn(CC(F)(F)F)c1)C2
The Ki of the first is lower: less than 0.1 µM for the first, 0.1 to 0.49 µM for the second. The first binds more tightly here.

`COc1cc(-c2cc(C)c3c(n2)CN(c2cncc(CN(C)C)c2)C3=O)cnc1OC` and `COc1cc(-c2cc(C)c3c(n2)CN(c2cncc(C#N)c2)C3=O)cnc1OC` cannot be ordered by Ki: less than 0.1 µM for the first, less than 0.1 µM for the second.

`COc1cc(-c2ccc3c(n2)CN(c2ccc(=O)n(CC(F)(F)F)c2)C3=O)cnc1OC` and `COc1cc(-c2cc(C)c3c(n2)CN(c2cnn(CC(F)(F)F)c2)C3=O)ccc1C` cannot be ordered by Ki: less than 0.1 µM for the first, less than 0.1 µM for the second.

`Cc1cc(-c2cccc(OC(F)(F)F)c2)nc2c1C(=O)N(c1cnn(CC(F)(F)F)c1)C2` and `COc1cncc(-c2cc(C)c3c(n2)CN(c2cn(CC(F)(F)F)cn2)C3=O)c1` cannot be ordered by Ki: less than 0.1 µM for the first, less than 0.1 µM for the second.

`CCOc1cc(-c2cc(C)c3c(n2)C(OCCOC)N(c2cnn(CC(F)(F)F)c2)C3=O)cnc1OC` (configuration not stated) and `CCOc1cncc(-c2cc(C)c3c(n2)[C@@H](OC)N(c2cnn(CC(F)(F)F)c2)C3=O)c1` cannot be ordered by Ki: less than 0.1 µM for the first, less than 0.1 µM for the second.

`CCn1ccc(N2C(=O)c3c(C)cc(-c4cncc(OCC(F)F)c4)nc3[C@H]2C)n1` and `Cc1cc(-c2cncc(C(=O)NC(C)C)c2)nc2c1C(=O)N(c1cnn(CC(F)(F)F)c1)C2C` (configuration not stated) cannot be ordered by Ki: less than 0.1 µM for the first, less than 0.1 µM for the second.

With `COc1ncc(-c2ccc3c(n2)CN(c2cnn(CC#N)c2)C3=O)c(OC)n1` the Ki was 0.1 to 0.49 µM.

Source: the Kinase Knowledgebase extract (Sharma et al. 2016)
